Measured values as given in US11292821B2, “Peptides and combination of peptides for use in immunotherapy against lung cancer, including NSCLC, SCLC and other cancers” (Immatics Biotechnologies GmbH, priority 2017, dated 2022).

Experiments:
CD8+ T cells = assay: In vitro T-cell priming assay with aAPCs (in vitro immunogenicity for MHC class I presented peptides); assay type: cell-based, human; details: in vitro immunogenicity, HLA B*08
HLA-B*08 = assay: MHC binding assay (UV-ligand exchange, β2m ELISA); set-up: species or system human

Substance | Wells positive [%] (CD8+ T cells) | Peptide exchange (peptide exchange yield, MHC class I binding score) (HLA-B*08)
312 (EAMLRNKEL; listed as Homo sapiens) [compound 312] | “+” (<20% = +) | “++++” (>75% = ++++)
315 (DIYQRALNL; listed as Homo sapiens) [compound 315] | “+” (<20% = +) | “++++” (>75% = ++++)
318 (EAAIRSVEL; listed as Homo sapiens) [compound 318] | “++” (20%-49% = ++) | “++++” (>75% = ++++)
299 (MAQFKEISL; listed as Homo sapiens) [compound 299] | “++++” (>=70% = ++++) | “++++” (>75% = ++++)
308 (MLKQKVEEL; listed as Homo sapiens) [compound 308] | “+” (<20% = +) | “++++” (>75% = ++++)
305 (ALKLRVAVL; listed as Homo sapiens) [compound 305] | “+” (<20% = +) | “++++” (>75% = ++++)
313 (ELKKKEYEEL; listed as Homo sapiens) [compound 313] | “+” (<20% = +) | “++++” (>75% = ++++)
300 (VASPKHCVL; listed as Homo sapiens) [compound 300] | “+” (<20% = +) | “+++” (>50 = +++)
316 (VIKEKALTL; listed as Homo sapiens) [compound 316] | “+” (<20% = +) | “+++” (>50 = +++)
314 (AIISRLVAL; listed as Homo sapiens) [compound 314] | “++” (20%-49% = ++) | “++++” (>75% = ++++)
311 (EIRIRVVQM; listed as Homo sapiens) [compound 311] | “+” (<20% = +) | “++++” (>75% = ++++)
303 (LPFPKFTV; listed as Homo sapiens) [compound 303] | “++” (20%-49% = ++) | “++++” (>75% = ++++)
307 (ILLPRTVSL; listed as Homo sapiens) [compound 307] | “+” (<20% = +) | “++++” (>75% = ++++)
